Measured values reported in PMC7833600 (The Journal of Biological Chemistry, 2021).
Non-standard residues stand in square brackets, D forms with d. Residues, ends and D or L forms follow the SMILES beside them. No end group written: not given here. *: point of attachment. Dnp = O=[N+]([O-])c1ccc(*)c([N+](=O)[O-])c1; Sta = CC(C)C[C@H](N)[C@@H](O)CC(=O)O; Mca = COc1ccc2c(CC(=O)*)cc(=O)oc2c1; Isovaleryl = CC(C)CC(=O)*

Key:
human ACE2 [1] = biological target: T1, human ACE2 (Homo sapiens, UniProt Q9BYF1); type: biochemical
T1 sequence (Q9BYF1 18-740 limits assumed): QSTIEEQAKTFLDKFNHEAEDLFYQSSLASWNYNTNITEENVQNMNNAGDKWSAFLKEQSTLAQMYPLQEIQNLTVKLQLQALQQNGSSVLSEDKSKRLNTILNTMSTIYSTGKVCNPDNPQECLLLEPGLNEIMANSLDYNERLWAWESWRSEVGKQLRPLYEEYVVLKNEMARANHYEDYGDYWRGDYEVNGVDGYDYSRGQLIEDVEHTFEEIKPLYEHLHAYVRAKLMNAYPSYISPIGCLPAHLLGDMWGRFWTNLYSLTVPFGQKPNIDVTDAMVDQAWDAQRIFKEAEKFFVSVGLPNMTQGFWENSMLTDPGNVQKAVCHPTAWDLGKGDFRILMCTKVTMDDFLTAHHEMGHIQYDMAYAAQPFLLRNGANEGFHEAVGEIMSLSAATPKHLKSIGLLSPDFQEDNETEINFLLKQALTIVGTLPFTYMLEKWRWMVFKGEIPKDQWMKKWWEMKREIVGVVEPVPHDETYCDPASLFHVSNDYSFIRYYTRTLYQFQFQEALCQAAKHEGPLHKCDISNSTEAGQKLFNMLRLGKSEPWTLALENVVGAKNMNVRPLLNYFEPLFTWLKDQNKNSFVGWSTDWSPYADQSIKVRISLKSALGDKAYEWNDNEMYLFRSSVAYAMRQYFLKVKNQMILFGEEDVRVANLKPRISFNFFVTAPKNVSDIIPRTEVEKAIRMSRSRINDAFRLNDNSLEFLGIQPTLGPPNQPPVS

human ACE2 [2] = biological target: T1, human ACE2; assay: biochemical; settings: IC50 for Competitive substrates, 1 h, 26 °C
human ACE2 [3] = biological target: T1, human ACE2; type: biochemical; remark: listed apart in the source
ACE2 = settings: cited from earlier work

NCCc1ccc(S(=O)(=O)F)cc1 [AEBSF]
effect on ACE2 activity (human ACE2 [1]): no effects

CC(C)C[C@H](N[C@@H](Cc1cncn1Cc1cc(Cl)cc(Cl)c1)C(=O)O)C(=O)O [MLN-4760]
effect on ACE2 activity (human ACE2 [1]): completely blocked | effect on the spike / RBD mediated enhancement of ACE2 cleavage (human ACE2 [1]): abolished

N=C(N)NCCC[C@H](N)C(=O)N1CCC[C@H]1C(=O)N1CCC[C@H]1C(=O)NCC(=O)N[C@@H](Cc1ccccc1)C(=O)N[C@@H](CO)C(=O)N1CCC[C@H]1C(=O)N[C@@H](Cc1ccccc1)C(=O)O [desBK, des-Arg^9-bradykinin]
IC50 (human ACE2 [2]): 1.43 ± 0.655 mM

CC(=O)N[C@@H](CC(C)C)C(=O)N[C@@H](CC(C)C)C(=O)N[C@H](C=O)CCCNC(=N)N [leupeptin]
effect on ACE2 activity (human ACE2 [1]): no effects

CC(C)CC(=O)N[C@H](C(=O)N[C@H](C(=O)N[C@@H](CC(C)C)[C@@H](O)CC(=O)N[C@@H](C)C(=O)N[C@@H](CC(C)C)[C@@H](O)CC(=O)O)C(C)C)C(C)C [pepstatin A] (Isovaleryl-VV[Sta]A[Sta]-OH)
effect on ACE2 activity (human ACE2 [1]): no effects

Mca-RPPGFSAFK(Dnp)-OH
amount of substrate cleaved by ACE2 (human ACE2 [3]): ~0.05 µM

Mca-YVADAPK(Dnp)-OH
amount of substrate cleaved by ACE2 (human ACE2 [3]): ~0.5 µM

QRPRLSHKGPMP↓F [Apelin-13]
k cat/Km of ACE2 cleavage (ACE2): > 1e+06 M⁻¹ s⁻¹

RPPGFSPFR [BK, bradykinin]
IC50 (human ACE2 [2]): 0.68 ± 0.087 mM

YGGFLRRIRPKL↓K [dynorphin A 1-13]
k cat/Km of ACE2 cleavage (ACE2): > 1e+06 M⁻¹ s⁻¹
